Assay results as given in publication PMC13031153 (Acta Pharmaceutica Sinica. B, 2025).
Read-outs that look alike come from different tables or passages of the source.

Legend:
[1] = test system: mδ-OR and its variants; assay: Maximal K+ current density evoked by saturating full agonist, mδ-OR variants; type: cell-based, mouse
[2] = test system: μ-OR over δ-OR; conditions: cited from earlier work
[3] = test system: δ/μ^N-terminal Chimera; type: cell-based, mouse
[4] = molecular target: mδ-OR-R291^ECL3A (mouse) (UniProt P32300); assay: MST
[5] = molecular target: mδ-OR-3M-PSA(28–30)-LGG (mouse) (UniProt P32300); assay: MST
[6] = molecular target: mouse δ-opioid receptor, wild type (mouse) (UniProt P32300); assay: MST
[7] = molecular target: mδ-OR-R292^ECL3E (mouse) (UniProt P32300); assay: MST
[8] = molecular target: mδ-OR-K108^2.63N-L125^3.29I-R291^ECL3A (mouse) (UniProt P32300); assay: MST
[9] = molecular target: mδ-OR-K108^2.63N (mouse) (UniProt P32300); assay: MST
[10] = test system: δ-OR; conditions: cited from earlier work
[11] = test system: hκ-OR; conditions: cited from earlier work
[12] = test system: mμ-OR mutants; type: cell-based, mouse; conditions: mμ-OR mutations at D^3.32, Y^3.33, V^5.43, I^6.51 (Fig. 5J)
[13] = test system: mδ-OR mutants; type: cell-based, mouse
[14] = test system: WT mδ-OR, mδ-OR-Q190^ECL2H, mδ-OR-Q201^ECL2H, mδ-OR-S45^N-terminalH, mδ-OR-E112^ECL1H; type: cell-based, mouse

Leu-enkephalin
maximum currents vs wild-type receptor [1]: statistically indistinguishable from wild-type receptor

endomorphin-2 [EM-2]
μ-OR selectivity over δ-OR [2]: > 1500 fold

CC[C@H](C)[C@H](NC(=O)[C@H](C)NC(=O)[C@H](CC(N)=O)NC(=O)[C@H](CCCCN)NC(=O)[C@H](Cc1ccccc1)NC(=O)[C@H](CC(C)C)NC(=O)[C@@H](NC(=O)[C@@H](NC(=O)[C@H](CC(C)C)NC(=O)[C@@H]1CCCN1C(=O)[C@@H](NC(=O)[C@H](CCC(N)=O)NC(=O)[C@H](CO)NC(=O)[C@H](CCCCN)NC(=O)[C@H](CCC(=O)O)NC(=O)[C@H](CO)NC(=O)[C@@H](NC(=O)[C@H](CCSC)NC(=O)[C@H](Cc1ccccc1)NC(=O)CNC(=O)CNC(=O)[C@@H](N)Cc1ccc(O)cc1)[C@@H](C)O)[C@@H](C)O)C(C)C)[C@@H](C)O)C(=O)N[C@H](C(=O)N[C@@H](CCCCN)C(=O)N[C@@H](CC(N)=O)C(=O)N[C@@H](C)C(=O)N[C@@H](Cc1ccc(O)cc1)C(=O)N[C@@H](CCCCN)C(=O)N[C@@H](CCCCN)C(=O)NCC(=O)N[C@@H](CCC(=O)O)C(=O)O)[C@@H](C)CC [β-endorphin]
preference between μ-OR and δ-OR [2]: no discernible preference
EC50 [3]: 10.3 ± 0.9 nM

endomorphin-1 (peptide)
Kd [4]: 344 nM
Kd [5]: 1.03 nM
Kd [6]: 2940 nM
Kd [7]: 408 nM
Kd [8]: 9.42 nM
Kd [9]: 299 nM

deltorphin
selectivity for δ-OR [10]: more than 1000 fold

CC(C)[C@@H](CN1CC[C@@](C)(c2cccc(O)c2)[C@@H](C)C1)NC(=O)[C@H]1Cc2ccc(O)cc2CN1 [JDTic]
selectivity for hκ-OR [11]: more than 1000 fold

CN1CC[C@]23c4c5ccc(O)c4O[C@H]2[C@@H](O)C=C[C@H]3[C@H]1C5 [morphine]
agonist-induced activation of mutants [12]: significant reductions
change in potency for mδ-OR ([13]; mutations of K108^2.63 to Ala or Asn): increased the potency
agonist-induced activation of mutants ([13]; mδ-OR mutations at D^3.32, Y^3.33, V^5.43, I^6.51 (Fig. 5H)): significant reductions
effect of ZnCl2 on agonist activation (control) ([14]; 1 mmol/L ZnCl2, WT mδ-OR, mδ-OR-Q190^ECL2H, mδ-OR-Q201^ECL2H): did not alter
effect of ZnCl2 on agonist activation (control) ([14]; 3 mmol/L ZnCl2, mδ-OR-S45^N-terminalH, mδ-OR-E112^ECL1H): did not alter
